The structures appear in SMILES notation.

Common to all, as to assay type: functional
The subject of assay [1] is MCF7. Briefly: Cell cycle arrest in human MCF7 cells assessed as accumulation at G2/M phase at 4 uM after 24 hrs using propidium iodide staining by FACS analysis (reference value: 19%). On the technique in general: In flow cytometry, cells or beads pass a laser one at a time.
Assay [2] deals with MCF7. As to the kind of experiment: Cell cycle arrest in human MCF7 cells assessed as accumulation at S phase at 4 uM after 24 hrs using propidium iodide staining by FACS analysis (reference value: 11%).
The subject of assay [3] is MCF7. Briefly: Cell cycle arrest in human MCF7 cells assessed as accumulation at G1 phase at 4 uM after 24 hrs using propidium iodide staining by FACS analysis (reference value: 70%).
In assay [4] the test system is MCF7. As to the kind of experiment: Cytotoxicity against human MCF7 cells assessed as cell viability at 4 uM after 48 hrs by MTT assay.
The subject of assay [5] is MCF7. Briefly: Cytotoxicity against human MCF7 cells assessed as cell viability at 2 uM after 48 hrs by MTT assay. For orientation: Formazan colour is commonly taken as a measure of viable cells.

`Cc1cc(C#Cc2ccccc2)ccc1-n1c(/C=C/c2cc(O)cc(O)c2)nc2ccccc2c1=O`: the Activity in assay [1] is 10%; in assay [2], 7%; in assay [3], 83%. Also, the OD in assay [4] is 0.73; in assay [5], 0.92.
As to `Cc1cc(C#Cc2ccccc2)ccc1-n1c(/C=C/c2ccc([N+](=O)[O-])o2)nc2ccccc2c1=O`, the OD was determined as 0.37 in assay [4] and 0.88 in assay [5].
`Cc1cc(C#Cc2ccccc2)ccc1-n1c(/C=C/c2ccc3ccccc3c2)nc2ccccc2c1=O`: the Activity in assay [1] stood at 24%; in assay [2], 8%; in assay [3], 68%. Besides, the OD in assay [4] was 0.43; in assay [5], 0.97.
For `COc1ccc2cc(C#Cc3ccc(-n4c(/C=C/c5ccc6ccccc6c5)nc5ccccc5c4=O)c(C)c3)ccc2c1`, the Activity in assay [1] came to 22%; in assay [2], 9%; in assay [3], 69%. The OD turned out to be 0.46 in assay [4] and 0.81 in assay [5].
The corresponding values for `COc1ccc2cc(C#Cc3ccc(-n4c(/C=C/c5c(Cl)cccc5Cl)nc5ccccc5c4=O)c(C)c3)ccc2c1` are 24%, 8%, 68%, 0.63 and 0.77.
For the compound `COc1ccc2cc(C#Cc3ccc(-n4c(/C=C/c5ccc([N+](=O)[O-])o5)nc5ccccc5c4=O)c(C)c3)ccc2c1`, the Activity was 39% in assay [1], 12% in assay [2] and 49% in assay [3]. Further, the values for the OD in assay [4] and in assay [5] were 0.58 and 0.66, respectively.
`Cc1cc(C#Cc2ccc(C(C)(C)C)cc2)ccc1-n1c(/C=C/c2cc(O)cc(O)c2)nc2ccccc2c1=O`: the Activity in assay [1] came to 18%; in assay [2], 8%; in assay [3] it was 74%. Moreover, the OD in assay [4] turned out to be 0.43; in assay [5], 0.6.
In the case of `Cc1cc(C#Cc2ccc(C(C)(C)C)cc2)ccc1-n1c(/C=C/c2ccc3c(c2)OCO3)nc2ccccc2c1=O`, the Activity in assay [1] was 23%; in assay [2] it was 10%; in assay [3], 67%. Further, the OD was determined as 0.52 in assay [4] and 0.67 in assay [5].
Consider `COc1ccc2cc(C#Cc3ccc(-n4c(/C=C/c5ccnc6ccccc56)nc5ccccc5c4=O)c(C)c3)ccc2c1`, for which the values for the Activity in assay [1], in assay [2] and in assay [3] were 19%, 7% and 74%, respectively. The results for the OD in assay [4] and in assay [5] were 0.5 and 0.76, respectively.
As to `COc1cc(/C=C/c2nc3ccccc3c(=O)n2-c2ccc(C#Cc3ccc(C(C)(C)C)cc3)cc2C)cc(OC)c1OC`, the Activity in assay [1] worked out at 78%; in assay [2], 8%; in assay [3], 14%. The OD in assay [4] was found to be 0.55; in assay [5], 0.74.
With `Cc1cc(C#Cc2ccc(C(C)(C)C)cc2)ccc1-n1c(/C=C/c2ccc([N+](=O)[O-])s2)nc2ccccc2c1=O`, the results for the Activity in assay [1], in assay [2] and in assay [3] were 24%, 8% and 68%, respectively. For the same compound, the values for the OD in assay [4] and in assay [5] were 0.25 and 0.54, respectively.
With `Cc1cc(C#Cc2ccc(C(C)(C)C)cc2)ccc1-n1c(/C=C/c2ccc(O)cc2)nc2ccccc2c1=O`, the Activity in assay [1] is given as 19%; in assay [2], 7%; in assay [3] it was 74%. Also, the results for the OD in assay [4] and in assay [5] were 0.52 and 0.71, respectively.
For the compound `Cc1cc(C#Cc2ccccc2)ccc1-n1c(/C=C/c2ccc(O)c([N+](=O)[O-])c2)nc2ccccc2c1=O`, the Activity in assay [1] is 20%; in assay [2] it was 7%; in assay [3], 73%. Further, the values for the OD in assay [4] and in assay [5] were 0.51 and 0.9, respectively.
Consider `COc1ccc2cc(C#Cc3ccc(-n4c(/C=C/c5ccc(OC)c(OC)c5)nc5ccccc5c4=O)c(C)c3)ccc2c1`, for which the figures for the Activity in assay [1], in assay [2] and in assay [3] were 23%, 7% and 70%, respectively. Besides, the OD in assay [4] is reported as 0.6; in assay [5], 0.7.
On to `Cc1cc(C#Cc2ccc(C(C)(C)C)cc2)ccc1-n1c(/C=C/c2ccc([N+](=O)[O-])o2)nc2ccccc2c1=O`, for which the Activity in assay [1] is 17%; in assay [2] it was 6%; in assay [3], 77%. Moreover, the results for the OD in assay [4] and in assay [5] were 0.4 and 0.7, respectively.
For the compound `Cc1cc(C#Cc2ccc(C(C)(C)C)cc2)ccc1-n1c(/C=C/c2ccc(Cl)cc2)nc2ccccc2c1=O`, the results for the OD in assay [4] and in assay [5] were 0.59 and 0.71, respectively.
As for `Cc1cc(C#Cc2ccccc2)ccc1-n1c(/C=C/c2ccc(Cl)cc2)nc2ccccc2c1=O`, the Activity in assay [1] worked out at 18%; in assay [2], 7%; in assay [3] it was 75%. Besides, the OD in assay [4] was found to be 0.48; in assay [5] it was 0.74.
On to `Cc1cc(C#Cc2ccc(C(C)(C)C)cc2)ccc1-n1c(/C=C/c2ccc3ccccc3c2)nc2ccccc2c1=O`, for which the figures for the Activity in assay [1], in assay [2] and in assay [3] were 20%, 8% and 72%, respectively. In addition, the OD in assay [4] came to 0.61; in assay [5], 0.92.
For the compound `COc1ccc2cc(C#Cc3ccc(-n4c(/C=C/c5cc(OC)c(OC)c(OC)c5)nc5ccccc5c4=O)c(C)c3)ccc2c1`, the Activity was 21% in assay [1], 7% in assay [2] and 72% in assay [3]. In addition, the values for the OD in assay [4] and in assay [5] were 0.58 and 0.57, respectively.
Regarding `Cc1ccccc1/C=C/c1nc2ccccc2c(=O)n1-c1ccc(C#Cc2ccccc2)cc1C`, the Activity in assay [1] was found to be 6%; in assay [2], 6%; in assay [3] it was 88%. Moreover, the figures for the OD in assay [4] and in assay [5] were 0.51 and 0.78, respectively.
`Cc1cc(C#Cc2ccccc2)ccc1-n1c(/C=C/c2ccc(F)cc2)nc2ccccc2c1=O`: the Activity in assay [1] is 20%; in assay [2] it was 7%; in assay [3], 73%. The OD in assay [4] was 0.61; in assay [5] it was 0.75.
The corresponding values for `COc1ccc2cc(C#Cc3ccc(-n4c(/C=C/c5ccc(F)cc5)nc5ccccc5c4=O)c(C)c3)ccc2c1` are 18%, 8%, 74%, 0.57 and 0.67.
For `Cc1cc(C#Cc2ccccc2)ccc1-n1c(/C=C/c2ccc(O)cc2)nc2ccccc2c1=O`, the Activity in assay [1] was 18%; in assay [2], 7%; in assay [3], 75%. The figures for the OD in assay [4] and in assay [5] were 0.58 and 0.87, respectively.
For `COc1cc(/C=C/c2nc3ccccc3c(=O)n2-c2ccc(C#Cc3ccccc3)cc2C)cc(OC)c1`, the Activity in assay [1] turned out to be 19%; in assay [2], 8%; in assay [3], 73%. Besides, the OD is listed as 0.61 in assay [4] and 0.93 in assay [5].
Consider `COc1ccc(/C=C/c2nc3ccccc3c(=O)n2-c2ccc(C#Cc3ccccc3)cc2C)cc1`, for which the Activity in assay [1] is 15%; in assay [2], 7%; in assay [3], 78%. In addition, the figures for the OD in assay [4] and in assay [5] were 0.73 and 0.84, respectively.
